Results: patent US8933233B2, “1,3,4-oxadiazole and 1,3,4-thiadiazole β-lactamase inhibitors” (priority 2012, dated 2015)
Where a name gives a salt, the structure may show the parent alone.

Tests used:
[1] = test system: bacterial strains that express the class D cephalosporinase OXA-15; experiment: Synergy MIC / standard BLI potentiation MIC assay, strains expressing OXA-15; type: cell-based, E. coli; conditions: in presence of a β-lactam; comparator Avibactam (CCC)
Protocol: (§1) Unless otherwise indicated, the activity of the BLI compounds can be described by the MIC value obtained from a Synergy MIC assay or a BLI potentiation assay (e.g as described herein), both of which are run in the presence of a β-lactam.
(§2) The experimental protocol was performed according to Clinical and Laboratory Standards Institute (CLSI) guidelines with modifications as described below (CLSI guidelines can be derived from the CLSI document M07-A9 published in January 2012: “Methods for Dilution Antimicrobial Susceptibility Tests for Bacteria That Grow Aerobically; Approved Standard-Ninth Edition”).
(§3) To prepare for MIC testing, frozen glycerol stocks of clinical isolates (Klebsiella pneumoniae, Eschericia coli, Enterobacter spp, Citrobacter spp, or Pseudomonas aeruginosa) were used to streak for isolated colonies on rich, non-selective, tryptic soy agar containing 5% sheep's blood (TSAB). Frozen glycerol stocks of laboratory engineered, isogenic E. coli strains, which contain cloned β-lactamase expressing plasmids were used to streak for isolated colonies on rich, selective LB agar supplemented with 25 μg/mL tetracycline to maintain the plasmid. All strains were incubated at 37° C. for 18-24 hrs.
(§4) On the day of testing, primary cultures were started by scraping off 5-10 colonies from the TSAB plates containing clinical strains or the tetracycline supplemented LB plates containing engineered strains. The clinical strain material was suspended in ˜5 mL of cation adjusted Mueller Hinton Broth (CAMHB) in 14 mL culture tubes. The engineered strain material was suspended in CAMHB (supplemented with 25 μg/mL tetracycline) in 14 mL culture tubes. All strains were incubated at 37° C. with aeration (200 rpm) for ˜2 hrs until the optical density at 600 nm (OD600) was ≧0.1.
(§5) The two compound components of the assay were each diluted in CAMHB and added to the 96-well broth microdilution assay plates. 50 μL of the β-lactam was added to each well of the assay plate in 2-fold dilutions with final concentrations ranging from 128 to 0.13 μg/mL. 25 μL of the BLI compound was added to all wells in the broth microdilution plates at a final concentration of 4 μg/mL. Inoculum cultures were prepared by standardizing the primary cultures to OD600=0.1 and then adding 20 μL of the adjusted primary culture per 1 mL CAMHB for clinical strains or CAMHB (supplemented with tetracycline at 100 μg/mL) for engineered strains, so that the final inoculum density was ˜10^5 colony forming units per milliliter. Diluted inoculum cultures were used to inoculate 25 μL per well in 96-well broth microdilution assay plates. The final volume of each well was 100 μL and contained a β-lactam at different concentrations, a BLIcompound at 4 μg/mL concentration, the bacterial culture at an OD600 of approximately 0.001 and when necessary tetracycline at 25 μg/mL.
(§6) Plates were incubated for 18-20 hours at 37° C. with aeration (200 rpm). Following incubation, growth was confirmed visually placing plates over a viewing apparatus (stand with a mirror underneath) and then OD600 was measured using a SpectraMax 340PC384 plate reader (Molecular Devices, Sunnyvale, Calif.). Growth was defined as turbidity that could be detected with the naked eye or achieving minimum OD600 of 0.1. MIC values were defined as the lowest concentration producing no visible turbidity.
(§7) The synergy MIC (sMIC) assay determines the concentration of the BLI required to potentiate the activity of a fixed concentration of a β-lactam antibiotic against β-lactamase producing bacterial strains. The experimental protocol was performed according to Clinical and Laboratory Standards Institute (CLSI) guidelines with modifications as described below (CLSI guidelines can be derived from the CLSI document M07-A9 published in January 2012: “Methods for Dilution Antimicrobial Susceptibility Tests for Bacteria That Grow Aerobically; Approved Standard-Ninth Edition”). […]

[2] = test system: bacterial strains that express KPC β-lactamases; experiment: Synergy MIC / standard BLI potentiation MIC assay, strains expressing KPC β-lactamases; type: cell-based, isogenic E. coli and clinical isolates; conditions: more active for at least one KPC strain and/or better spectrum; comparator Avibactam
Protocol: as §1, §2, §3, §4, §5, §6, §7

Row | Compound | activity against bacterial strains that express OXA-15, compared with Avibactam [1] | activity and/or spectrum of activity against bacterial strains that express KPC β-lactamases, compared with Avibactam [2]
1 | N=C(N)NCC(O)Cc1nnc([C@@H]2CC[C@@H]3CN2C(=O)N3OS(=O)(=O)O)o1 (stereo partly drawn) [Compound 730, (2S,5R)-2-(5-(3-guanidino-2-hydroxypropyl)-1,3,4-oxadiazol-2-yl)-7-oxo-1,6-diazabicyclo[3.2.1]octan-6-yl hydrogen sulfate] | more active than Avibactam | more active than Avibactam
2 | N[C@H]1C[C@@H](Cc2nnc([C@@H]3CC[C@@H]4CN3C(=O)N4OS(=O)(=O)O)o2)C1 [Compound 728, (2S,5R)-2-(5-(((1s,3R)-3-aminocyclobutyl)methyl)-1,3,4-oxadiazol-2-yl)-7-oxo-1,6-diazabicyclo[3.2.1]octan-6-yl hydrogen sulfate] | more active than Avibactam | more active than Avibactam
3 | N=C(N)NC[C@@H](O)c1nnc([C@@H]2CC[C@@H]3CN2C(=O)N3OS(=O)(=O)O)o1 [Compound 731, (2S,5R)-2-(5-((R)-2-guanidino-1-hydroxyethyl)-1,3,4-oxadiazol-2-yl)-7-oxo-1,6-diazabicyclo[3.2.1]octan-6-yl hydrogen sulfate] | more active than Avibactam | more active than Avibactam
4 | N[C@@H]1CN[C@H](c2nnc([C@@H]3CC[C@@H]4CN3C(=O)N4OS(=O)(=O)O)o2)C1 [Compound 760, (2S,5R)-2-(5-((2S,4S)-4-aminopyrrolidin-2-yl)-1,3,4-oxadiazol-2-yl)-7-oxo-1,6-diazabicyclo[3.2.1]octan-6-yl hydrogen sulfate] | more active than Avibactam | more active than Avibactam
5 | O=C1N2C[C@@H](CC[C@H]2c2nnc([C@H]3CCNC3)o2)N1OS(=O)(=O)O [Compound 758, (2S,5R)-7-oxo-2-(5-((S)-pyrrolidin-3-yl)-1,3,4-oxadiazol-2-yl)-1,6-diazabicyclo[3.2.1]octan-6-yl hydrogen sulfate] | more active than Avibactam | more active than Avibactam
6 | CC(C)(N)Cc1nnc([C@@H]2CC[C@@H]3CN2C(=O)N3OS(=O)(=O)O)o1 [Compound 737, (2S,5R)-2-(5-(2-amino-2-methylpropyl)-1,3,4-oxadiazol-2-yl)-7-oxo-1,6-diazabicyclo[3.2.1]octan-6-yl hydrogen sulfate] | more active than Avibactam | more active than Avibactam
7 | N[C@@H]1CN[C@@H](c2nnc([C@@H]3CC[C@@H]4CN3C(=O)N4OS(=O)(=O)O)o2)C1 [Compound 763, (2S,5R)-2-(5-((2R,4S)-4-aminopyrrolidin-2-yl)-1,3,4-oxadiazol-2-yl)-7-oxo-1,6-diazabicyclo[3.2.1]octan-6-yl hydrogen sulfate] | more active than Avibactam | more active than Avibactam
8 | O=C1N2C[C@@H](CC[C@H]2c2nnc(C3CC4(CNC4)C3)o2)N1OS(=O)(=O)O [Compound 750, (2S,5R)-2-(5-(2-azaspiro[3.3]heptan-6-yl)-1,3,4-oxadiazol-2-yl)-7-oxo-1,6-diazabicyclo[3.2.1]octan-6-yl hydrogen sulfate] | more active than Avibactam | more active than Avibactam
9 | N=C1NCC(c2nnc([C@@H]3CC[C@@H]4CN3C(=O)N4OS(=O)(=O)O)o2)N1 (stereo partly drawn) [Compound 767, (2S,5R)-2-(5-(2-iminoimidazolidin-4-yl)-1,3,4-oxadiazol-2-yl)-7-oxo-1,6-diazabicyclo[3.2.1]octan-6-yl hydrogen sulfate] | more active than Avibactam | more active than Avibactam
10 | O=C1N2C[C@@H](CC[C@H]2c2nnc(CCNC3CNC3)o2)N1OS(=O)(=O)O [Compound 745, (2S,5R)-2-(5-(2-(azetidin-3-ylamino)ethyl)-1,3,4-oxadiazol-2-yl)-7-oxo-1,6-diazabicyclo[3.2.1]octan-6-yl hydrogen sulfate] | more active than Avibactam | more active than Avibactam
11 | O=C1N2C[C@@H](CC[C@H]2c2nnc(C3CNC3)o2)N1OS(=O)(=O)O [Compound 708, (2S,5R)-2-(5-(azetidin-3-yl)-1,3,4-oxadiazol-2-yl)-7-oxo-1,6-diazabicyclo[3.2.1]octan-6-yl hydrogen sulfate] | more active than Avibactam | more active than Avibactam
12 | N=C(N)NC1(Cc2nnc([C@@H]3CC[C@@H]4CN3C(=O)N4OS(=O)(=O)O)o2)CC1 [Compound 739, (2S,5R)-2-(5-((1-guanidinocyclopropyl)methyl)-1,3,4-oxadiazol-2-yl)-7-oxo-1,6-diazabicyclo[3.2.1]octan-6-yl hydrogen sulfate] | more active than Avibactam | more active than Avibactam
13 | NC1(Cc2nnc([C@@H]3CC[C@@H]4CN3C(=O)N4OS(=O)(=O)O)o2)CC1 [Compound 724, (2S,5R)-2-(5-((1-aminocyclopropyl)methyl)-1,3,4-oxadiazol-2-yl)-7-oxo-1,6-diazabicyclo[3.2.1]octan-6-yl hydrogen sulfate] | more active than Avibactam | more active than Avibactam
14 | N[C@H]1C[C@H](Cc2nnc([C@@H]3CC[C@@H]4CN3C(=O)N4OS(=O)(=O)O)o2)C1 [Compound 751, (2S,5R)-2-(5-(((1r,3S)-3-aminocyclobutyl)methyl)-1,3,4-oxadiazol-2-yl)-7-oxo-1,6-diazabicyclo[3.2.1]octan-6-yl hydrogen sulfate] | more active than Avibactam | more active than Avibactam
15 | N=C(N)NCc1nnc([C@@H]2CC[C@@H]3CN2C(=O)N3OS(=O)(=O)O)s1 [Compound 721, (2S,5R)-2-(5-(guanidinomethyl)-1,3,4-thiadiazol-2-yl)-7-oxo-1,6-diazabicyclo[3.2.1]octan-6-yl hydrogen sulfate] | more active than Avibactam | more active than Avibactam
16 | NCCc1nnc([C@@H]2CC[C@@H]3CN2C(=O)N3OS(=O)(=O)O)o1 [Compound 703, (2S,5R)-2-(5-(2-aminoethyl)-1,3,4-oxadiazol-2-yl)-7-oxo-1,6-diazabicyclo[3.2.1]octan-6-yl hydrogen sulfate] | more active than Avibactam | more active than Avibactam
